For experiment [1], the system named is spontaneously hypertensive rats (SHR). Description: Antihypertensive activity in spontaneously hypertensive rats (SHR). The format is in vivo, male SHR (Okamoto and Aoki strain) rats. The settings on record: for Peak time (time of maximum hypotensive effect): p.o.; for duration of antihypertensive activity (in words): compared with commercially available calcium antagonists. As for the experimental part:
The animals used were male SHR [Okamoto and Aoki strain; cf. Jap. Circul. […] Proc. Soc. […] The other end of the cannula was exposed through the skin on the back of the neck and fixed. After 1 to 4 days, the aortic cannula was connected to a pressure transducer (produced by Nihon Koden Co., Ltd., Japan; Model MP-4T), and conscious blood pressure was measured by direct method. On the day of the experiment, the blood pressure was measured for one hour prior to dosing. The test compound, suspended in 0.5% aqueous tragacanth solution, was administered orally at a volume of 3.0 ml/kg and the blood pressure was measured continuously for 5 hours.
The changes of blood pressure are expressed by the mean pressure calculated from the values of systolic and diastolic pressure.

For experiment [2], the system named is vasopressin-induced ST depression. Description: Preventive effect on vasopressin-induced ST depression (experimental model of angina pectoris). The format is in vivo, Male Donryu strain rats. Details: key to Preventive effect on ST depression, 7 hours / Preventive effect on ST depression, 1 hour / Preventive effect on ST depression, 5 hours / Preventive effect on ST depression, 3 hours: +: Significantly different from vehicle control (P < 0.05); -: No significant difference. The conditions noted are these: for Preventive effect on ST depression, 1 hour: 1 hour following administration; for Preventive effect on ST depression, 3 hours: 3 hours following administration; for Preventive effect on ST depression, 5 hours: 5 hours following administration; for Preventive effect on ST depression, 7 hours: 7 hours following administration. The protocol:
(1) Preventive effect on vasopressin-induced ST depression (effect in experimental model of angina pectoris)
The test was carried out according to the method of Hatano et al. [cf. Pharmacometrics, 19, 311-317 (1980)].
Male Donryu strain rats, weighing 130-180 g, were anesthetized with 60 mg/kg (i.p.) of sodium pentobarbital. Lead II electrocardiogram was recorded. The ST depression produced with 0.2 IU/kg (i.v.) of vasopressin was recorded at intervals of a given period for 5 minutes after the administration of vasopressin. The test compound, suspended in 0.5% aqueous tragacanth solution, was administered orally 1, 3, 5 and 7 hours before the administration of vasopressin. The amplitude of ST depression was measured by means of the computer, and the data were analyzed statistically by two-dimensional analysis between the control group and the treated group to evaluate the effect of the test compound. Each group of 5 rats was used for each dose of the test compound.

Experiment [3] concerns methacholine-induced ST elevation. As to the kind of experiment: Preventive effect on methacholine-induced ST elevation (experimental model of variant angina). The conditions noted are these: i.v.; for ST elevation, administn. of M (8 μg) after administn. of test compd. (at peak time): ± S.E.; for preventive effect on the ST elevation (in words): compared with diltiazem hydrochloride. The experiment is classed as in vivo, Male SD strain rats. The protocol:
(2) Preventive effect on methacholine-induced ST elevation (effect in experimental model of variant angina)
The test was carried out according to the method of Sakai et al. [cf. J. Pharmacol. Methods, 5, 325-336 (1981)].
Male SD strain rats, weighing about 500 g, were anesthetized with 60 mg/kg (i.p.) of sodium pentobarbital. Lead II electrocardiogram was recorded. The ST elevation was produced with 8.0 μg of metacholine given into the coronary […] through the cannula inserted from the right carotid artery. The test compound, dissolved in 5% ethanol-physiological saline solution, was administered intravenously. The amplitude of ST elevation was measured by means of the computer 0.5, 5 and 10 minutes after the administration of the test compound and afterward at intervals of 10-minute. The effect of the test compound was evaluated by comparing the amplitude of ST elevation after administration of the test compound with that before the administration. Each group of 5 rats was used for each dose of the test compound.
The abbreviation M in the table represents metacholine.

Setting [4] is: 0.3 mg/kg, * P < 0.05, ** P < 0.01.

The results in this text go back to US4749703A, “Calcium antagonist piperazine derivatives, and compositions therefor” (Dainippon Pharmaceutical Co., Ltd., priority 1984, dated 1988).

Where a name gives a salt, the structure may show the parent alone.

Turning to `O=C(CCCN1CCN(c2ccc(F)cc2)CC1)NC1c2ccccc2CSc2cc(F)ccc21` (centres unmarked) [Example 42, 3-fluoro-11-[4[4-(4-fluorophenyl)-1-piperazinyl]butyrylamino]-6,11-dihydrodibenzo[b,e]thiepin], the “Peak time (time of maximum hypotensive effect)” value in experiment [1] (30 mg/kg) is 4 h. Moreover, in experiment [1] (oral, 30 mg/kg), the “maximum hypotensive effect (decrease compared with the initial blood pressure)” value is recorded as 12-14% and the “time of maximum hypotensive effect” value was 4 to 5 h.
With `Cc1ccc2c(c1)C(NC(=O)CCCN1CCN(c3ccc(F)cc3)CC1)c1ccccc1CS2` (centres unmarked) [2(3), 11-[4-[4-(4-fluorophenyl)-1-piperazinyl]butyrylamino]-2-methyl-6,11-dihydrodibenzo[b,e]thiepin], in experiment [2] (3 mg/kg p.o.), the “Preventive effect on ST depression, 1 hour” value (from here on “Preventive effect … 1 hour”) is on record as “-”; the “Preventive effect on ST depression, 3 hours” value (“Preventive effect … 3 hours” below) is “-”; the “Preventive effect on ST depression, 5 hours” value (“Preventive effect … 5 hours” for short) is “-”; the “Preventive effect on ST depression, 7 hours” value (shortened to “Preventive effect … 7 hours”) is given as “-”. For the same molecule, in experiment [2] (10 mg/kg p.o.), the “Preventive effect … 1 hour” value is given as “+”; the “Preventive effect … 3 hours” value is listed as “+”; the “Preventive effect … 5 hours” value is “+”; the “Preventive effect … 7 hours” value was “-”. In experiment [2] (30 mg/kg p.o.), the “Preventive effect … 1 hour” value is “+” and the “Preventive effect … 7 hours” value is listed as “+”. Further, the “preventive effect on the ST depression (in words)” value in experiment [2] (p.o., compared with diltiazem hydrochloride) was “more prolonged preventive effect on the ST depression than diltiazem hydrochloride”. In addition, the “peak time (preventive effect on ST elevation)” value in experiment [3] (0.1 mg/kg) came to 5 min. In experiment [3] (0.1 mg/kg, * P < 0.05), the “ST elevation, administn. of M (8 μg) after administn. of test compd. (at peak time)” value (“ST elevation, administn. of M (8 μg)” below) was “+0.19 ± 0.05 ΔmV”. For the same molecule, the “peak time (preventive effect on ST elevation)” value in experiment [3] (0.3 mg/kg) is 0.5 min. Moreover, the “ST elevation, administn. of M (8 μg)” value in experiment [3] (setting [4]) is “+0.13 ± 0.02 ΔmV”. The “preventive effect on the ST elevation (in words)” value in experiment [3] was “preventive effect on the ST elevation comparable to that of diltiazem hydrochloride”. Also, in experiment [1] (30 mg/kg), the “Peak time (time of maximum hypotensive effect)” value was found to be 4 h. Further, in experiment [1] (oral, 30 mg/kg), the “maximum hypotensive effect (decrease compared with the initial blood pressure)” value is given as 12-14% and the “time of maximum hypotensive effect” value lay in the range of 4 to 5 h.
For `COc1ccc([C@@H]2Sc3ccccc3N(CCN(C)C)C(=O)[C@@H]2OC(C)=O)cc1` [Diltiazem hydrochloride, reference compound], the “Preventive effect … 1 hour” value in experiment [2] (3 mg/kg p.o.) is recorded as “-”; in experiment [2] (10 mg/kg p.o.), “+”; in experiment [2] (30 mg/kg p.o.), “+”. The “Preventive effect … 3 hours” value in experiment [2] (3 mg/kg p.o.) is reported as “-”; in experiment [2] (10 mg/kg p.o.), “+”. For the same molecule, the results for the “Preventive effect … 5 hours” value in experiment [2] (10 mg/kg p.o.) and in experiment [2] (30 mg/kg p.o.) were “-” and “+”, respectively. Besides, in experiment [2] (30 mg/kg p.o.), the “Preventive effect … 7 hours” value is “-”. Moreover, the entries for the “peak time (preventive effect on ST elevation)” value in experiment [3] (0.1 mg/kg), in experiment [3] (0.3 mg/kg) and in experiment [3] (1.0 mg/kg) were 10 min, 10 min and 5 min, respectively. The “ST elevation, administn. of M (8 μg)” value in experiment [3] (0.1 mg/kg, * P < 0.05) is “+0.15 ± 0.03 ΔmV”; in experiment [3] (setting [4]), “+0.06 ± 0.02 ΔmV”; in experiment [3] (1.0 mg/kg, ** P < 0.01) it was “+0.09 ± 0.02 ΔmV”. The “Peak time (time of maximum hypotensive effect)” value in experiment [1] (30 mg/kg) and in experiment [1] (50 mg/kg) was 0.333 h throughout. Also, the “decrease compared with the initial blood pressure at 5 hours after dosing” value in experiment [1] (oral) worked out at 3%. Also, the “reduction of blood pressure (in words)” value in experiment [1] (oral, 30 mg/kg) is listed as “did not reduce significantly blood pressures”. In addition, the “maximum effect (decrease compared with the initial blood pressure)” value in experiment [1] (oral, 50 mg/kg) turned out to be 13%. For the same molecule, in experiment [1] (oral, 50 mg/kg), the “time of maximum effect” value was found to be 20 min.
For `O=C(CCCN1CCN(c2ccc(F)cc2)CC1)NC1c2ccccc2CSc2ccccc21` (centres unmarked) [Example 1(1), 11-[4-[4-(4-fluorophenyl)-1-piperazinyl]butyrylamino]-6,11-dihydrodibenzo[b,e]thiepin], the “duration of antihypertensive activity (in words)” value in experiment [1] is recorded as “longer duration of antihypertensive activity than that of the commercially available calcium antagonists”.
Take `COC(=O)C1=C(C)NC(C)=C(C(=O)OC)C1c1ccccc1[N+](=O)[O-]` [Nifedipine, reference compound]: in experiment [2] (0.01 mg/kg p.o.), the “Preventive effect … 1 hour” value is on record as “-” and the “Preventive effect … 3 hours” value is listed as “-”. Besides, in experiment [2] (0.1 mg/kg p.o.), the “Preventive effect … 1 hour” value is listed as “+”; the “Preventive effect … 3 hours” value is given as “-”; the “Preventive effect … 5 hours” value is listed as “-”. In experiment [3] (0.03 mg/kg), the “peak time (preventive effect on ST elevation)” value stood at 10 min and the “ST elevation, administn. of M (8 μg)” value was “+0.17 ± 0.02 ΔmV”. The “peak time (preventive effect on ST elevation)” value in experiment [3] (0.1 mg/kg) is on record as 20 min. The “ST elevation, administn. of M (8 μg)” value in experiment [3] (0.1 mg/kg, * P < 0.05) was “+0.08 ± 0.02 ΔmV”. Besides, in experiment [1] (3 mg/kg), the “Peak time (time of maximum hypotensive effect)” value was 0.5 h. Moreover, the “decrease compared with the initial blood pressure at 5 hours after dosing” value in experiment [1] (oral) is 7%. For the same molecule, in experiment [1] (oral, 3 mg/kg), the “maximum hypotensive effect (decrease compared with the initial blood pressure)” value was determined as 17% and the “time of maximum hypotensive effect” value came to 0.5 h.
In the case of `O=C(CCCN1CCN(c2ccc(F)cc2)CC1)NC1c2ccccc2C[S+]([O-])c2ccccc21` (single isomer, unassigned) [Example 136, 11-[4-[4-(4-fluorophenyl)-1-piperazinyl]butyrylamino]-6,11-dihydrodibenzo[b,e]thiepin-5-oxide-A], the “Peak time (time of maximum hypotensive effect)” value in experiment [1] (30 mg/kg) worked out at 5 h. Also, in experiment [1] (oral, 30 mg/kg), the “maximum hypotensive effect (decrease compared with the initial blood pressure)” value was 12-14% and the “time of maximum hypotensive effect” value fell in the range of 4 to 5 h.
For `O=C(CCCN1CCN(c2ccccc2)CC1)NC1c2ccccc2CSc2ccccc21` (centres unmarked) [6(1), 11-[4-(4-phenyl-1-piperazinyl)butyrylamino]-6,11-dihydrodibenzo[b,e]thiepin], the “peak time (preventive effect on ST elevation)” value in experiment [3] (0.1 mg/kg) is 0.5 min; in experiment [3] (0.3 mg/kg) it was 5 min. Further, the “ST elevation, administn. of M (8 μg)” value in experiment [3] (0.1 mg/kg, * P < 0.05) is “+0.15 ± 0.05 ΔmV”; in experiment [3] (setting [4]), “+0.07 ± 0.01 ΔmV”. For the same molecule, in experiment [3], the “preventive effect on the ST elevation (in words)” value is listed as “preventive effect on the ST elevation comparable to that of diltiazem hydrochloride”.
For `Cc1ccc2c(c1)C(NC(=O)CCCN1CCN(c3ccc(F)cc3)CC1)c1ccccc1CS2` (centres unmarked) [2(1), 11-[4-[4-(4-fluorophenyl)-1-piperazinyl]butyrylamino]-2-methyl-6,11-dihydrodibenzo[b,e]thiepin], in experiment [1], the “duration of antihypertensive activity (in words)” value is “longer duration of antihypertensive activity than that of the commercially available calcium antagonists”.
Take `O=C(CCCN1CCN(c2ccc(F)cc2)CC1)NC1c2ccccc2CS(=O)(=O)c2ccccc21` (centres unmarked) [Example 138, 11-[4-[4-(4-fluorophenyl)-1-piperazinyl]butyrylamino]-6,11-dihydrodibenzo[b,e]thiepin-5,5-dioxide]: the “Peak time (time of maximum hypotensive effect)” value in experiment [1] (30 mg/kg) worked out at 5 h. Moreover, in experiment [1] (oral, 30 mg/kg), the “maximum hypotensive effect (decrease compared with the initial blood pressure)” value is recorded as 12-14% and the “time of maximum hypotensive effect” value lay in the range of 4 to 5 h.
